# According to ChEMBL document CHEMBL1201862, “PubChem BioAssay data set” (2004):
# Activity calls are given as the source filed them.
# Columns and labels:
# Hexokinase = molecular target: T1, Hexokinase (Trypanosoma brucei, UniProt Q38C41); assay: Confirmation assay for inhibitors of Trypanosoma brucei hexokinase 1-Analogue-first series. [Related pubchem assays (depositor defined):AID1430, AID1632, AID2516, AID2560, AID2579, AID2600, AID449725, AID492951]; format: functional
# T1 sequence (Q38C41 whole entry): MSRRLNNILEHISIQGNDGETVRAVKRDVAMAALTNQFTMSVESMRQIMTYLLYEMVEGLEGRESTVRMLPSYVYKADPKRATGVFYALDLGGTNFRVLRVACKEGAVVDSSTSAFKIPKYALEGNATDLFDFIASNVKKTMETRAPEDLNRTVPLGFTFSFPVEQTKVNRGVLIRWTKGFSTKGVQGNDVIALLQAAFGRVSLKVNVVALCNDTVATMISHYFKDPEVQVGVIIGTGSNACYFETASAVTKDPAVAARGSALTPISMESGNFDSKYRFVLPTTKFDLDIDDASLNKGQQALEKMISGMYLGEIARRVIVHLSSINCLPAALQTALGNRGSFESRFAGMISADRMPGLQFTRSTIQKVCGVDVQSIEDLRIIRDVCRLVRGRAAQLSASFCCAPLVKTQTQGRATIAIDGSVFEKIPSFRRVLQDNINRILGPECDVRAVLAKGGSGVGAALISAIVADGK
# [1] = molecular target: G-protein coupled receptor 55 (Homo sapiens, UniProt Q9Y2T6); assay: GPR55 agonists via beta-arrestin recruitment, primary screen, imaging, U2OS cells, beta-arrestin-GFP redistribution (AID 1961); format: functional
# G-protein coupled receptor 55, sequence (Q9Y2T6 whole entry): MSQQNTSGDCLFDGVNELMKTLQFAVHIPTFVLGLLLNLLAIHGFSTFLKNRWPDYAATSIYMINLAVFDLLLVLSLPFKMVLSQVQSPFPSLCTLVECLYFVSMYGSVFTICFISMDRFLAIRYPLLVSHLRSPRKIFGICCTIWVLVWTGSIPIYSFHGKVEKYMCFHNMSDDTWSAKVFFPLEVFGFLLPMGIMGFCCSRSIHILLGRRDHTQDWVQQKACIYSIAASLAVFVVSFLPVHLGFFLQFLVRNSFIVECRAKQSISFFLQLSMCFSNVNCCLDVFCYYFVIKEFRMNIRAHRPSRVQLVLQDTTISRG
# [2] = molecular target: T2, Kappa-type opioid receptor (Homo sapiens, UniProt P41145); format: functional
# T2 sequence (P41145 whole entry): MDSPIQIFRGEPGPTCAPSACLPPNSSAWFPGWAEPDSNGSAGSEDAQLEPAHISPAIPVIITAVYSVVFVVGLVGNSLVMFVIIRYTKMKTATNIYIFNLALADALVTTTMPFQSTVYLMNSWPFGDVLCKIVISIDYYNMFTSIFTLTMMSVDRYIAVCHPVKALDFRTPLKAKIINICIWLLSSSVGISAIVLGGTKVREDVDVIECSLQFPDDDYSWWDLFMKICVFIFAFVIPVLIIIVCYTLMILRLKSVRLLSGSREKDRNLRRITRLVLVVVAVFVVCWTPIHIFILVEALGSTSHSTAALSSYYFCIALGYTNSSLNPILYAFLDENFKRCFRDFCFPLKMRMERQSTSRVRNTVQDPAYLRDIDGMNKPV
# Beta-galactosidase [3] = molecular target: T3, Beta-galactosidase (Escherichia coli, UniProt Q8VNN2); format: functional
# T3 sequence (Q8VNN2 whole entry): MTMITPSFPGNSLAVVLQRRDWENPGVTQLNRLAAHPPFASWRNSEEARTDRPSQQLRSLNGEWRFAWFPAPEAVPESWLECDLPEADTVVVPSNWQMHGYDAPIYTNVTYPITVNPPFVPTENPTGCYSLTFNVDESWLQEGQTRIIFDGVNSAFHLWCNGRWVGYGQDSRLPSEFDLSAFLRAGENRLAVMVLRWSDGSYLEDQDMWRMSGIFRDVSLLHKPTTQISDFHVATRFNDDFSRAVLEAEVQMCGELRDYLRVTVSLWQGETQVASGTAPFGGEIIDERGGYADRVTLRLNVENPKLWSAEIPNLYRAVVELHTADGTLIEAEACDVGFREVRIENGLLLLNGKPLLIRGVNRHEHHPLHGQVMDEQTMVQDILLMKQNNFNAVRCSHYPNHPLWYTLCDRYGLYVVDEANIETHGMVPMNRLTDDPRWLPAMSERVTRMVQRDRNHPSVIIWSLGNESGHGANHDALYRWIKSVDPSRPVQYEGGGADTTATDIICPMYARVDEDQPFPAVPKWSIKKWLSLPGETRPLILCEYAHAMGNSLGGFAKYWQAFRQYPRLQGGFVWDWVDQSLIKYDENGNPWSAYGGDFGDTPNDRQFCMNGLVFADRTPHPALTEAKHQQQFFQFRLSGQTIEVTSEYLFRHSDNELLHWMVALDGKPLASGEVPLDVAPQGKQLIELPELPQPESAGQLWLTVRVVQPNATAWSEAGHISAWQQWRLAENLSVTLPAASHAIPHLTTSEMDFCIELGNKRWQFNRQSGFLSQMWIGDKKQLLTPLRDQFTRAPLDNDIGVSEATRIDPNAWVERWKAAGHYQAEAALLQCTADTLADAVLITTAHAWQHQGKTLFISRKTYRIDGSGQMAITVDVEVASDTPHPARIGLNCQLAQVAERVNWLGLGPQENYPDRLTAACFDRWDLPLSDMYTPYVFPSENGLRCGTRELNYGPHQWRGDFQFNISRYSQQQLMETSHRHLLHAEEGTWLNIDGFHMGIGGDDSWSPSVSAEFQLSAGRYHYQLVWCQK
# [4] = molecular target: T2, Kappa-type opioid receptor; format: functional; remark: listed apart in the source
# [5] = molecular target: T4, Heat shock factor protein 1 (Mus musculus, UniProt P38532); assay: inhibition of MG132-induced HSE-luciferase signal, confirmation, cell-based, NIH3T3, luminescence, dose retest (AID 2382); format: functional;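 further: NIH3T3 fibroblasts with HSF1-driven luciferase reporter stressed by proteasome inhibitor MG132; luminescence from HSF1-driven luciferase expression after 8 hours of MG132 stress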
# T4 sequence (P38532 whole entry): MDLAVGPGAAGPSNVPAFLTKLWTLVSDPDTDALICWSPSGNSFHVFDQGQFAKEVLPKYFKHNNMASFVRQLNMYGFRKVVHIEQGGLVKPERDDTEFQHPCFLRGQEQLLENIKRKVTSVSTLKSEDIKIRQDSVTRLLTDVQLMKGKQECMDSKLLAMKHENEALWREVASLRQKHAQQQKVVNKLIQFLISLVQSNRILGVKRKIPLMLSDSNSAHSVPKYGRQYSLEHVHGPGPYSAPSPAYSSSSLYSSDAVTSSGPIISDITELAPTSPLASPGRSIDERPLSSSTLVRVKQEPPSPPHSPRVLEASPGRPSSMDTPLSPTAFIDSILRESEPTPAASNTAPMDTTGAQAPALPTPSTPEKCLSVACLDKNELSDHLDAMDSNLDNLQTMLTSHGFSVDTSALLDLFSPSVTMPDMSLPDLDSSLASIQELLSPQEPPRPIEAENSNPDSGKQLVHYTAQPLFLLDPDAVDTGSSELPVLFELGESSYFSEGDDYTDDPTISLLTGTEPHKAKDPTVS
# Beta-galactosidase [6] = molecular target: T3, Beta-galactosidase; assay: beta-galactosidase enzyme inhibitors and activators, dose response, artefact control for CCR6 antagonist project, biochemical, E. coli enzyme, set 3 (AID 504712); format: functional
# [7] = Counterscreen for IDE inhibitors: Luminescence-based cell-based high throughput dose response assay to identify compounds that are cytotoxic to HEK cells. [Related pubchem assays: 434962 (Primary screen (IDE inhibitors in singlicate)), 449730 (Counterscreen (Cytotoxicity in triplicate)), 435028 (Confirmation (IDE inhibitors in triplicate)) …; format: functional; conditions: HEK293
# Insulin-degrading enzyme = molecular target: T5, Insulin-degrading enzyme (Homo sapiens, UniProt P14735); assay: Dose Response: Fluorescence polarization-based cell-based high throughput dose response assay for inhibitors of insulin-degrading enzyme (IDE). [Related pubchem assays: 434962 (Primary screen (IDE inhibitors in singlicate)), 449730 (Counterscreen (Cytotoxicity in triplicate)), 435028 (Confirmation (IDE inhibitors in triplicate)), 434984 (Summary …; format: functional
# T5 sequence (P14735 whole entry): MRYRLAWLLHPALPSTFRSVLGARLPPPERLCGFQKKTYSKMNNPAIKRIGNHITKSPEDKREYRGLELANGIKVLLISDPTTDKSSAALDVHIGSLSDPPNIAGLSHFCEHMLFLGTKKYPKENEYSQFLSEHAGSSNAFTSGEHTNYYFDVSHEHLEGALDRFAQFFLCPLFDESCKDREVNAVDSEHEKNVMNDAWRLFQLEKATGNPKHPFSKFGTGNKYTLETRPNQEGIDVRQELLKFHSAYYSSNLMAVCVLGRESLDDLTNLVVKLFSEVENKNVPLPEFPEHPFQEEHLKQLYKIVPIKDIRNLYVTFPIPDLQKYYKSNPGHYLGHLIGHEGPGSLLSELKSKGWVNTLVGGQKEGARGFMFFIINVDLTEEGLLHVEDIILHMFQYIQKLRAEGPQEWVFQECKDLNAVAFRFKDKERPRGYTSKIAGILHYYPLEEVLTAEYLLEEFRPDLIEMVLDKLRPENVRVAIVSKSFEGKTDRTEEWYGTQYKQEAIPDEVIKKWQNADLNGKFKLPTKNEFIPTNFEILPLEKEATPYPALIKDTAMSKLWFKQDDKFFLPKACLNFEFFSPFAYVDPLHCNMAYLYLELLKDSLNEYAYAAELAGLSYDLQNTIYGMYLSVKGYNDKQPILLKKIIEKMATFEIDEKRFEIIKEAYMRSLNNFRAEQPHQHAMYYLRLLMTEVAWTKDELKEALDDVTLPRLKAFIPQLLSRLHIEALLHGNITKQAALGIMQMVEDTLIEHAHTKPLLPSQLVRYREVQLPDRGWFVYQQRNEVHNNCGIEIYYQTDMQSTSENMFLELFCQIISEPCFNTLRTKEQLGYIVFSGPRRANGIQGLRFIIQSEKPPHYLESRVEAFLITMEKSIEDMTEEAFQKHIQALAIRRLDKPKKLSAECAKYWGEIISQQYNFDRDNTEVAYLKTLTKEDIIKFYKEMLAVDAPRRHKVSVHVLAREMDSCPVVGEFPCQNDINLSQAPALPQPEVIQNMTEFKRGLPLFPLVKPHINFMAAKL
# [8] = molecular target: T6, Alkaline phosphatase, tissue-nonspecific isozyme (Homo sapiens, UniProt P05186); assay: human TNAP enzyme inhibitors, SAR follow-up, biochemical, luminescent, dose response (AID 1056)
# T6 sequence (P05186 whole entry): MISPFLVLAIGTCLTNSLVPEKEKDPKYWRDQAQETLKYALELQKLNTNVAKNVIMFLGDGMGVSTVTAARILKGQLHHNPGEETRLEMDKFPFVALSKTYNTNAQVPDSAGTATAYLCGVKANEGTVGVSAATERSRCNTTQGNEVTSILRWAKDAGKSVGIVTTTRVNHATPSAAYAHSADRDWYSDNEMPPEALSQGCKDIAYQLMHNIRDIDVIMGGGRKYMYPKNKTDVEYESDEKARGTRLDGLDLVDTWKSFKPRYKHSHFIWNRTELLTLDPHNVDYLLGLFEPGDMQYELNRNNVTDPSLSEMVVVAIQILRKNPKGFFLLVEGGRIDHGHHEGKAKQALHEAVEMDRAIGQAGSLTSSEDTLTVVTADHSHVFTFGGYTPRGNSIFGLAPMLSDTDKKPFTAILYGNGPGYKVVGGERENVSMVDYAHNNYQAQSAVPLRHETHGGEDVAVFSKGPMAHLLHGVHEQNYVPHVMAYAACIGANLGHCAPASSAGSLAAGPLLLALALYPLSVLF
# [9] = molecular target: Glyceraldehyde-3-phosphate dehydrogenase (Homo sapiens, UniProt P04406)
# Glyceraldehyde-3-phosphate dehydrogenase, sequence (P04406 whole entry): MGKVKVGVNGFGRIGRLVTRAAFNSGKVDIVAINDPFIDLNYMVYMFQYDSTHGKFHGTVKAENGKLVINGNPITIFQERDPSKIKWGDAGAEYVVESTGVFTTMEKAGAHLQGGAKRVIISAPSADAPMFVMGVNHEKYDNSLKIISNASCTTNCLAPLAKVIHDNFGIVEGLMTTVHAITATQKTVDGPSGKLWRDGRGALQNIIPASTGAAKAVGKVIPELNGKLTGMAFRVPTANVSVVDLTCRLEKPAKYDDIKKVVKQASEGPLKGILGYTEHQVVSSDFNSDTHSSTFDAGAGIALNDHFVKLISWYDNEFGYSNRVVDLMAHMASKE
structure (smiles),measurement,setting,value
O=c1c2ccccc2[s+]([O-])n1-c1cccc(F)c1 (stereo not drawn),IC50,Hexokinase,> 25 µM (inactive)
COc1ccccc1CNC(=O)c1oc2ccccc2c1C,EC50,[1],3.85 µM (active)
COc1ccc2sn(-c3ccccc3)c(=O)c2c1,IC50,Hexokinase,3.22 µM (active)
COc1ccccc1Cn1c(SCC(=O)C(C)(C)C)nc2cc(C(=O)N3CCC4(CC3)OCCO4)ccc2c1=O,EC50,[1],4.58 µM (active)
O=C1/C(=C\c2ccc(O)cc2)SC(=S)N1c1cccnc1,IC50,[2],11.4 µM (active)
same,EC50,Beta-galactosidase [3],14.6 µM (active)
same,IC50,[4],> 32 µM
O=C(Cc1ccccc1)Nc1cccc(N2C(=O)C=CC2=O)c1,EC50,[5],19 µM (active)
same,IC50,Beta-galactosidase [6],> 66.6 µM (inactive)
O=C(c1ccco1)N1CCN(c2ccnc3cc(Cl)ccc23)CC1,IC50,[7],18.2 µM (not active)
same,IC50,Insulin-degrading enzyme,> 18.6 µM (not active)
Cc1cc(C)c(S(=O)(=O)Nc2cnc3ccccc3c2)c(C)c1,IC50,[8],> 100 µM (inactive)
same,IC50,[9],> 100 µM (not active)
